{"source": "paper PMC12655637", "about": "“Design, Synthesis, and Mechanistic Study of Novel Ciprofloxacin/Thiazole Chalcone Hybrids as Potential Anticancer Agents” (Pharmaceuticals, 2025)", "key": {"[1]": {"system": "human melanoma LOX IMVI cancer cell line", "design": "method as in PMID 39406816", "conditions": "LOX IMVI ref 33; cited from earlier work"}, "CCRF-CEM": {"system": "CCRF-CEM", "design": "method as in PMID 39338317", "conditions": "CCRF-CEM ref 14; cited from earlier work"}, "RPMI-8226": {"system": "RPMI-8226", "design": "method as in PMID 39338317", "conditions": "RPMI-8226 ref 14; cited from earlier work"}, "MDA-MB-468": {"system": "MDA-MB-468", "design": "method as in PMID 39338317", "conditions": "MDA-MB-468 ref 14; cited from earlier work"}, "OVCAR-3": {"system": "OVCAR-3", "design": "method as in PMID 39338317", "conditions": "OVCAR-3 ref 14; cited from earlier work"}, "[2]": {"assay": "In vitro cytotoxicity against normal cell line WI 38", "format": "cell-based", "conditions": "human, WI-38 normal cell line; ± SEM", "source_text": "Detailed results of cytotoxicity of compounds 4b and 4d against normal cell\nBlank CC Sample No. 4b/WI38 sample no. 4d/WI38\nconc. viability conc. viability"}, "tubulin polymerization": {"system": "tubulin polymerization", "design": "method as in PMID 40308265", "conditions": "read-out: IC50 inhibition of tubulin polymerization; cited from earlier work"}, "[3]": {"system": "renal cancer cell line UO-31", "design": "method as in PMID 29547830", "conditions": "UO-31 ref 31; cited from earlier work"}, "HCT-116": {"system": "HCT-116", "design": "method as in PMID 40308265", "conditions": "HCT-116 ref 32; cited from earlier work"}, "MDAMB-231": {"system": "MDAMB-231", "design": "method as in PMID 40308265", "conditions": "MDAMB-231 ref 32; cited from earlier work"}, "MCF-7": {"system": "MCF-7", "design": "method as in PMID 40308265", "conditions": "MCF-7 ref 32; cited from earlier work"}, "PC-3": {"system": "PC-3", "design": "method as in PMID 40308265", "conditions": "PC-3 ref 32; cited from earlier work"}, "[4]": {"system": "non-small-cell lung cancer A459", "design": "method as in PMID 27555286", "conditions": "A459 ref 30; cited from earlier work"}, "leukemia subpanel": {"system": "leukemia subpanel", "design": "method as in PMID 24090914", "conditions": "leukemia subpanel ref 26; cited from earlier work"}}}
{"smiles": "O=C(O)c1cn(C2CC2)c2cc(N3CCN(C(=O)CCCN4C(=O)S/C(=C\\c5ccc(F)cc5)C4=O)CC3)c(F)cc2c1=O", "note": "[IIX]", "values": [{"measurement": "IC50", "setting": "[1]", "result": 25.4, "unit": "µM"}]}
{"smiles": "O=C(/C=C/c1ccc(Cl)cc1)c1c[nH]c(=S)s1", "note": "[VII]", "values": [{"measurement": "IC50", "setting": "CCRF-CEM", "result": 2.88, "unit": "µM"}, {"measurement": "IC50", "setting": "RPMI-8226", "result": 2.4, "unit": "µM"}, {"measurement": "IC50", "setting": "MDA-MB-468", "result": 2.51, "unit": "µM"}, {"measurement": "IC50", "setting": "OVCAR-3", "result": 2.82, "unit": "µM"}]}
{"smiles": "COc1cccc2c1C(=O)c1c(O)c3c(c(O)c1C2=O)C[C@@](O)(C(=O)CO)C[C@@H]3O[C@H]1C[C@H](N)[C@H](O)[C@H](C)O1", "note": "[Doxorubicin, doxorubicin, reference compound]", "values": [{"measurement": "IC50", "setting": "[2]", "result": "19.8 ± 0.68", "unit": "µM"}]}
{"smiles": "COc1ccc(/C=C\\c2cc(OC)c(OC)c(OC)c2)cc1O", "note": "[CA-4]", "values": [{"measurement": "IC50", "setting": "tubulin polymerization", "result": 8.33, "unit": "µM"}]}
{"smiles": "O=C(CN1CCN(c2cc3c(cc2F)c(=O)c(C(=O)O)cn3C2CC2)CC1)N/N=C/c1ccccc1O", "note": "[IV]", "values": [{"measurement": "IC50", "setting": "[3]", "result": 0.75, "unit": "µM"}]}
{"smiles": "COc1cc(/C=C/C(=O)c2sc(SCC(=O)Nc3nc(-c4ccccc4)cs3)nc2C)cc(OC)c1OC", "note": "[V]", "values": [{"measurement": "IC50", "setting": "HCT-116", "result": 8, "unit": "µM"}, {"measurement": "IC50", "setting": "MDAMB-231", "result": 6, "unit": "µM"}, {"measurement": "IC50", "setting": "tubulin polymerization", "result": 2.69, "unit": "µM"}, {"measurement": "IC50", "setting": "MCF-7", "result": 4, "unit": "µM"}, {"measurement": "IC50", "setting": "PC-3", "result": 7, "unit": "µM"}]}
{"smiles": "O=C(CN1CCN(c2cc3c(cc2F)c(=O)c(C(=O)O)cn3C2CC2)CC1)Nc1ccc(Cl)cc1", "note": "[III]", "values": [{"measurement": "IC50", "setting": "[4]", "result": 14.8, "unit": "µM"}]}
{"smiles": "COc1cc(/C=C/C(=O)c2ccc(NC(=O)N3CCN(c4cc5c(cc4F)c(=O)c(C(=O)O)cn5C4CC4)CC3)cc2)cc(OC)c1OC", "note": "[VI]", "values": [{"measurement": "Selectivity ratio", "setting": "leukemia subpanel", "result": 6.71}]}
